# Source: patent US20240392254A1, “CANCER MICROENVIRONMENT” (CARCINOTECH LTD, priority 2021, published 2024)
# Where two headings read alike, the source gives them in different places.
# Columns and labels:
# [1] = tested on: U-87 MG glioblastoma cell line; test: Cisplatin dose-response in 2D culture, CellTiter-Glo viability; type: cell-based
# Method: (§1) Cell cultures were exposed to the indicated cisplatin concentrations for 72 h. Cell viability was then assessed using the luminescence-based CellTiter-Glo Assay. Data are presented as means±SEM (n≥2). For 2D cell cultures and 3D tumorspheres FIGS. 7A and 7B) dose-response curves were fitted (nonlinear regression) to calculate the IC50 values (see: Table 1 in the examples section). In the 3D bioprint experiment (FIG. 7B) statistically significant difference between untreated control and cisplatin treatment was determined using an unpaired t-test (**** p≤0.0001).
# (§2) Both cell lines were deemed sensitive to cisplatin, however, higher drug doses were required to initiate death of cancer stem cells.
# [2] = tested on: glioblastoma cancer stem cells (GBM CSC); test: as above; type: cell-based
# Method: as §1, §2
# [3] = tested on: 3D GBM tumorspheres (spheroids) from coculture of U-87 MG, GBM CSC, GBM CAF and microglia (HMC3); test: Cisplatin dose-response in 3D GBM tumorspheres, CellTiter-Glo viability; type: cell-based
# Method: as §1
# In the next step, response to cisplatin was tested in 3D GBM spheroids (see FIG. 7B). […] Nevertheless, cisplatin was effective in 3D GBM tumourspheres (spheroids) as well.
# [4] = tested on: 3D GBM bioprints (example B21_012); test: Cisplatin treatment of 3D GBM bioprinted constructs, CellTiter-Glo viability; type: cell-based, human
# Method: as §1
# Bioprinted constructs were treated with 50, 100, 200, or 400 μM cisplatin (CDDP) for 72 h. Viability was assessed using CellTiter-Glo assay.
# Tumorspheres, obtained from a coculture of U87MG (60%), microglia HMC3 (28%), GBM-CAF (10%) and GBM-CSC (2%) after 14 days in 5×96-well round bottom low adhesion plates, were harvested by sedimenting in Falcon tube then transferred into a 1 ml syringe. The culture medium was eliminated by gravitation. The total volume of tumorsphere pellet was 50 μL. 270 μL of bioink Cellink Laminink 411 were transferred into another 1 ml syringe; a connector was used to link both syringes. Mixing the bioink and tumorspheres was done by pushes from one side to another. The homogenous mixture tumorspheres-bioink (˜320 μL) was transferred in 3 ml syringe preloaded with 1 mL start ink. […]
# [5] = tested on: bioprinted construct BB21-001 (MDA-MB-231, hMAds, CAF, BCSC); test: Doxorubicin treatment of single-cell bioprinted breast cancer construct, RealTime-Glo MT viability; type: cell-based, human
# Method: The 15-day old bioprinted constructs were treated with 0.2 and 1 μM Doxorubicin (Doxo) for 72 h. Cell viability was assessed using RealTime-Glo MT before treatment (day 0) and after 72 h of treatment. To assess the doxorubicin effects after 72 h, a percentage of day 0 viability was calculated for each construct. Statistically significant differences were determined using one-way ANOVA with Tukey's post-hoc test, and indicated as follows: *** p≤0.001, **** p≤0.0001, ns—not significant.
# Each cell line (MDA-MB-231, hMAds, CAF and BCSC) was harvested, counted and then the required number of cells was transferred into a 15 ml Falcone tube. The cells were spun down then resuspended into 20 μL of complete 3D Tumorsphere Medium XF (obtained from PromCell®) and loaded into a syringe preloaded with 200 μL of Laminink 411 (cells corresponded to 10% of the bioink volume). Then mixed for 550 times. The homogeneous mixture was transferred to a syringe and then set to bioprint (the extrusion volume of each bioprint being set to 3 uL (approximately 50000 cells per droplet).
# [6] = tested on: bioprinted construct BB21-001; test: LDH release (LDH-Glo) cytotoxicity in bioprinted breast cancer construct; type: cell-based, human; conditions: 0.2 and 1 μM doxorubicin, 72 h time-point
# Method: The 15-day old bioprinted constructs were treated with 0.2 and 1 μM Doxorubicin (Doxo). Medium samples were collected at 24, 48 and 72 h time points to assess the Lactate Dehydrogenase (LDH) release, which is a marker of cytotoxicity. LDH-Glo assay was used. Data are presented as means±SD, n=3.
# Cytotoxicity of doxorubicin was also assessed by LDH release detection.
# [7] = tested on: MDA-MB-231 triple negative breast cancer cells; test: Doxorubicin dose-response in 2D cell culture; conditions: for cell viability (in comparison to an untreated control sample): 2D cell culture
# Method: The MDA-MB-231 cells were cultured in Leibovitz's L-15 Medium (ATCC®) and fetal bovine serum was added to a final concentration of 10%, and in accordance with the general procedure outlined in MDA-MB-231 (HTB-26™) Product sheet from ATCC® (https://www.atcc.org/products/htb-26).
# Cells were exposed to a range of doxorubicin concentrations for 72 hours and sensitivity to this drug was evaluated by determining a concentration that kills 50% of the cells (IC50).
"IC50 ([7]; 2D culture, 72 hours) [µM]",SMILES,"IC50 ([1]; 2D U-87 MG, 72 h, read-out: Cisplatin IC50 (Mean ± SEM)) [µM]","sensitivity to cisplatin ([1]; 2D culture, 72 hours)","IC50 ([2]; 2D GBM CSC, 72 h, read-out: Cisplatin IC50 (Mean ± SEM)) [µM]","sensitivity to cisplatin ([2]; 2D culture, 72 hours, higher doses required than for U-87 MG)",effectiveness of cisplatin ([3]; 3D GBM tumourspheres),IC50 ([3]; 3D spheroids (tumourspheres)) [µM],"IC50 ([4]; 3D Bioprinted tumour, 72 h, read-out: Cisplatin IC50) [µM]","IC50 ([4]; printed construct, read-out: IC50 value) [µM]",effect on cell viability ([5]; 1.0 μM doxorubicin),"viability at 0.2 µM ([5]; Homo sapiens, MDA-MB-231, 0.2 μM doxorubicin, 72 h, 15-day old construct, read-out: cell viability (in comparison to an untreated control sample)) [%]","viability at 1 µM ([5]; Homo sapiens, MDA-MB-231, 1.0 μM doxorubicin, 72 h, 15-day old construct, read-out: cell viability (in comparison to an untreated control sample)) [%]",LDH release (cytotoxicity) [6],cell viability (in comparison to an untreated control sample) ([7]; 0.2 μM doxorubicin) [%],cell viability (in comparison to an untreated control sample) ([7]; 1.0 μM doxorubicin) [%]
,N.N.[Cl][Pt][Cl] [Cisplatin],12.9 ± 2.5,sensitive,20.1 ± 3.5,sensitive,effective,111,> 200,> 200,,,,,,
0.08 ± 0.02,"COc1cccc2c1C(=O)c1c(O)c3c(c(O)c1C2=O)C[C@@](O)(C(=O)CO)C[C@@H]3O[C@H]1C[C@H](N)[C@H](O)[C@H](C)O1 [doxorubicin, Doxorubicin]",,,,,,,,,significantly reduces cell viability,~84,~35,increasing trend,~40,<14
